Results as given in patent publication US12281084B2, “Acetyl-CoA synthetase 2 (ACSS2) inhibitors and methods using same” (The Wistar Institute, priority 2019, dated 2025).
“Also recorded” adds a separate entry of the source.

What was measured:
[1] = test system: Brpkp110 tumors; test: Brpkp110 tumor xenograft growth in NSG mice; type: in vivo, mouse; conditions: daily intraperitoneal injection for two weeks, 100 mg/kg (FIG. 5E)
Procedure: (§1) For BT474 mouse xenograft studies 5-6 week old female NSG […] were anesthetized and one 17β-estradiol 60 day release pellet (Innovative Research of America Cat. No. SE-121) was injected subcutaneously via 10 gauge precision trochar into the lateral side of the neck between the ear and shoulder. 24 hours later 10^5 BT474 luciferase positive cells in 100 μl PBS:matrigel (growth factor reduced) were injected subcutaneously into the hind limb. For A7C11 and Brpkp110 xenografts, 5×10^5 cells in 100 μl PBS:Matrigel (growth factor reduced Corning Cat. No. 356231) were subcutaneously injected into the hindlimb of 5-6 week old female NSG mice […]. Following tumor establishment in all groups, mice were randomized and treated intraperitoneally (IP) daily with vehicle (10% DMSO, 10% absolute ethanol, 20% solutol, 60% water containing 0.5% Tween20) or 100 mg/kg VY-3-135 as indicated in the figure legend. Tumors were measured thrice weekly via caliper measurement and tumor volume calculated as (L×W^2)/2 (where L is the longer of the 2 measurements). At the study conclusion all tumors were resected and processed fresh or flash frozen in liquid nitrogen and stored at −80° C. for downstream analysis.
Tumor bearing mice were given daily intraperitoneal injection of VY-3-135 for two weeks. […]

[2] = test system: BT474 cells; test: RNA sequencing of BT474 cells under hypoxia and low lipid stress; type: cell-based, human; conditions: H1, RNA sequencing
Procedure: ACSS2 affects histone and transcription factor acetylation in the nucleus of cells which then affects gene transcription. It was thus tested if inhibition of ACSS2 affects hypoxia and lipid depletion induced transcriptional stress responses. BT474 cells were incubated in normoxic, nutrient replete conditions (N10) and in hypoxic, low lipid conditions (H1). […] Additional analysis also found significant upregulation of 30 genes related to fatty acid synthesis (FIG. 3D).
It was then compared how many of the 1075 hypoxia and low lipid stress responsive genes were affected by siRNA mediated knockdown of ACSS2 (siACSS2) and VY-3-135 treatment.

[3] = test system: BT474 tumors; test: In vivo 13C2-acetate tracing in BT474 tumors; design: species or system mouse
Procedure: All metabolomic experiments were performed in serum-like modified Eagle's medium (SMEM). SMEM contains 54 different nutrients that are found in the bloodstream at concentrations that are physiologically relevant to humans. SMEM was supplemented with 10% or 1% fetal bovine serum (FBS; Life Technologies). Cells were grown in normoxia (atmospheric oxygen) or hypoxia (1% oxygen) while being incubated in uniformly labeled ^13C2-acetate (0.100 mM; Cambridge Isotope Laboratories). Lengths of incubation are described in the figure legends. For extraction of metabolites from cultured cells, SMEM medium was aspirated and cells were washed once in ice-cold PBS. Metabolites were extracted by adding a solution of LC-MS grade methanol/acetonitrile/water (5:3:2) to the well. Plates were incubated at 4° C. for 5 minutes on a rocker and then the extraction solution was collected. The metabolite extract was cleared by centrifugation at 15,000×g for 10 minutes at 4° C. Supernatants were transferred to LC-MS silanized glass vials with PTFE caps and either run immediately on the LC-MS or stored at −80° C. […]
LC-MS analysis was performed on a Q Exactive Hybrid Quadrupole-Orbitrap HF-X MS (ThermoFisher Scientific) equipped with a HESI II probe and coupled to a Vanquish Horizon UHPLC system (ThermoFisher Scientific). […] Samples were analyzed in full MS scan with polarity switching at scan range 65 to 975 m/z; 120,000 resolution; automated gain control (AGC) target of 1E6; and maximum injection time (max IT) of 100 milliseconds. Identification and quantitation of metabolites was performed using an annotated compound library and TraceFinder 4.1 software. […]
On-target activity of VY-3-135 in the tumor was probed. […] Tumor lipid extracts were saponified and the resulting fatty acids were analyzed by LC-MS. Likewise, polar metabolites were extracted from matching tumor samples and analyzed by LC-MS. […] Isotopologs ≥M+10 were not detected in tumors from VY-3-135 treated mice.

[4] = test system: BT474 tumors; test: QuantSeq 3' mRNA sequencing of BT474 tumor tissue; type: in vivo, mouse; conditions: vehicle vs treated mice
Procedure: QuantSeq 3′ mRNA sequencing of BT474 tumor tissue from vehicle and VY-3-135 treated mice was performed. Similar to in vitro results in FIG. 3, the effects of VY-3-135 on gene transcription in vivo were minimal. […] Furthermore, of the 248 differentially regulated genes only 7 changed by more than 2-fold and none by more than 2.5-fold (FIGS. 14A-14B).

[5] = test system: sgACSS2 Brpkp110 tumors; test: sgACSS2 (Acss2 knockout) Brpkp110 tumor xenograft growth in NSG mice; type: in vivo, mouse; conditions: tumors lacking ACSS2 expression (FIG. 5F)
From the text: CRISPR-Cas9 pools of Brpkp110 and A7C11 were generated using single guide RNAs against exon 1 in mouse Acss2. Cas9 and guide RNAs were introduced into Brpkp110 and A7C11 cell by lentiviral infection. Briefly, HEK293T cells were transfected (Lipofectamine 2000) with psPAX2, pVSV-G, and pLentiCRISPRV2-blast containing a single guide RNA cloned into the BsmBI site (GE Healthcare). Transduced pools of Brkp110 and A7C11 cells were selected using blasticidin S.
as §1, with “Following tumor establishment in all groups, mice were randomized and treated intraperitoneally (IP) daily with vehicle (10% DMSO, 10% absolute ethanol, 20% solutol, 60% water containing 0.5% Tween20) or 100 mg/kg VY-3-135 as indicated in the figure legend.” left out, “At the study conclusion all tumors were resected and processed fresh or flash frozen in liquid nitrogen and stored at −80° C. for downstream analysis.” left out

CCn1c(C(O)(c2ccccc2)c2ccccc2)nc2ccc(C(=O)NC[C@@H](C)O)cc21 [VY-3-135, (R)-1-ethyl-2-(hydroxydiphenylmethyl)-N-(2-hydroxypropyl)-1H-benzo[d]imidazole-6-carboxamide]
Brpkp110 tumor growth [1]: causes a significant decrease in Brpkp110 tumor growth; also recorded: caused significant reduction in Brpkp110 tumor growth | transcriptional regulation of genes in response to hypoxia and low lipid stress [2]: has a minimal effect on the transcriptional regulation of genes in response to hypoxia and low lipid stress | 13C2-acetate labeling of citrate in tumors ([3]; BT474 tumors (FIG. 6D)): no effect was observed | palmitate isotopologs ≥M+10 in tumors ([3]; BT474 tumors from treated mice): not detected | 13C labeling of palmitate in tumors ([3]; BT474 tumors, 13C2-acetate in drinking water 48 hours (FIG. 6C)): caused a significant decrease in the ^13C labeling of palmitate | effects on gene transcription in vivo [4]: minimal | sgACSS2 Brpkp110 tumor growth [5]: did not further affect the growth of Brpkp110 sgACSS2 tumors; also recorded: no further effect on tumor growth
